This note sets out measurements from patent publication US10414774B2, “Compound useful for altering the levels of bile acids for the treatment of diabetes and cardiometabolc disease” (Merck Sharp & Dohme Corp., priority 2016, dated 2019).

For this test, the target named is T1, Human CYP8B1 (Homo sapiens, UniProt Q9UNU6).
T1 sequence (Q9UNU6 1-501): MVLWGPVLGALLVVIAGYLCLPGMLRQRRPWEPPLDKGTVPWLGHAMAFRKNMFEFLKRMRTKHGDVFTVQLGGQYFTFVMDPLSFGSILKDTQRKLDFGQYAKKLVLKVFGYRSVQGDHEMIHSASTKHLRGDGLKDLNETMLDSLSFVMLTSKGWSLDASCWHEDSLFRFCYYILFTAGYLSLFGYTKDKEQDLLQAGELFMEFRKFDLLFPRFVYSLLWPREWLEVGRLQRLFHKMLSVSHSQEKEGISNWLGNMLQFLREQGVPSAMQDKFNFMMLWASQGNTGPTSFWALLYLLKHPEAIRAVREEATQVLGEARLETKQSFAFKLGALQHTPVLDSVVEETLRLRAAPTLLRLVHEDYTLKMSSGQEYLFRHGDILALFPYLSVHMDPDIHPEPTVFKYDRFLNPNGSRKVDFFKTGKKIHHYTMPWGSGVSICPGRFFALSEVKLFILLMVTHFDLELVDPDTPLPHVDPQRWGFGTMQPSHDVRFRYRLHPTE
Put plainly: Human CYP8B1 Liver Microsome Assay. The settings on record: Human CYP8B1 IC50, human liver microsomes; substrate 7a-hydroxy-4-cholesten-3-one, NADPH; RapidFire MS detection of 7α,12α-dihydroxy-4-cholesten-3-one. Background: Liver microsomes are a subcellular fraction often used to study metabolism.
Description: To a 384 well polypropylene plate (Corning 3656), 250 nl of inhibitor in 100% DMSO (1.25% final DMSO concentration) was pre-plated using an Echo liquid handler (Labcyte Inc.). Human liver microsomes (Xenotech) were diluted in of 0.1 M phosphate buffer, pH 7.4, at a concentration of 65 μg/ml and 15 μL was added to the 384 well plate. The plates were incubated at ambient room temperature for 30 minutes. After pre-incubation with inhibitor, the reaction was initiated by adding 5 μl of substrate solution (4.0 μM 7a-hydroxy-4-cholesten-3-one (Toronto Research Chemicals), 2 mM of NADPH (Sigma), 0.1 M phosphate buffer (pH 7.4). The reaction was carried out for 45 minutes at ambient room temperature and was quenched by the addition of 50 μl of acetonitrile+0.1% vol/vol formic acid (FA)+300 nM 7α-hydroxy-4-cholesten-3-one-d7 (Toronto Research Chemicals). The plates were sealed and centrifuged at 3000 rpm for 5 minutes. Plates were loaded onto the Agilent RapidFire RF300 HTMS system, wherein samples were sipped for 600 ms, and the sip sensor detection signals the diversion of sample from the loop onto a C4 solid phase extraction (SPE) cartridge, where salts are washed off for 2500 ms with a mobile phase of water with 0.1% vol/vol FA at a flow rate of 1.5 ml/min. The column path was switched, and the sample was eluted off the cartridge and flowed into the mass spectrometer for 3000 ms with a mobile phase of acetonitrile and 0.1% vol/vol FA at a flow rate of 1.25 ml/min. The aspirator tip was washed separately with water and acetonitrile between sample aspirations (each for 600 ms) to minimize carryover contamination. Mass spectrometry was carried out using a Sciex API4000 triple quadrupole mass spectrometer (Applied Biosystems, Concord, ON, Canada) equipped with electrospray ionization (ESI) operated in the positive-ion mode. The product 7α,12α-dihydroxy-4-cholesten-3-one and internal standard 7α-hydroxy-4-cholsten-3-one-d7 were detected using multiple reaction monitoring (MRM) with Q1/Q3 transitions at m/z 417.3 to 381.3 and m/z 408.3 to 390.3, respectively, with a dwell time of 100 ms and a collision energy of 24 V for each transition. The mass spectrometer used an ESI voltage of 5000 V and a source temperature of 650° C. Extracted ion chromatograms for each transition were integrated and processed using the RapidFire Integrator software. The data for each well were normalized by monitoring product conversion with the ratio of AUCproduct/(AUCinternal standard). The data was then fitted to a four parameter logistic fit using ActivityBase Software to calculate an IC50 of the inhibitor.
The term IC50 denotes the concentration that inhibits the measured activity by half. The low end stands for greater potency, the high end for weaker potency. In turn, `C[C@@H]1CN(c2c(C#N)cnc3c(Cl)c(F)ccc23)CC[C@@H]1C(=O)N1CCn2c(nnc2C(F)(F)F)C1` [Example 13, 8-chloro-7-fluoro-4-[(3S,4S)-3-methyl-4-{[3-(trifluoromethyl)-5,6-dihdyro[1,2,4]triazolo[4,3-a]pyrazin-7(8H)-yl]carbonyl}piperidin-1-yl]quinoline-3-carbonitrile] registered an IC50 of 3300 pM.
Molecule `C[C@@H]1CN(c2c(C#N)cnc3c(Cl)cccc23)CC[C@@H]1C(=O)N1CCn2c(nnc2C(F)(F)F)C1` [Example 14, 8-chloro-4-[(3S,4S)-3-methyl-4-{[3-(trifluoromethyl)-5,6-dihydro[1,2,4]triazolo[4,3-a]pyrazin-7(8H)-yl]carbonyl}piperidin-1-yl]quinoline-3-carbonitrile] returned an IC50 of 1700 pM. Compared with the last molecule, the IC50 is about 1.9-fold lower.
Regarding `C[C@@H]1CN(c2c(C#N)cnc3c(F)c(Cl)c(F)cc23)CC[C@@H]1C(=O)N1CCn2c(nnc2C(F)(F)F)C1` [Example 15, 7-chloro-6,8-difluoro-4-[(3S,4S)-3-methyl-4-{[3-(trifluoromethyl)-5,6-dihdyro[1,2,4]triazolo[4,3-a]pyrazin-7(8H)-yl]carobnyl}piperidin-1-yl]quinoline-3-carbonitrile], 1000 pM corresponded to half-maximal inhibition (IC50).
The result for `C[C@@H]1CN(c2c(C#N)cnc3cc(C(F)(F)F)ccc23)CC[C@@H]1C(=O)N1CCn2c(nnc2C(F)(F)F)C1` [Example 16, 4-[(3S,4S)-3-methyl-4-{[3-(trifluoromethyl)-5,6-dihydro[1,2,4]triazolo[4,3-a]pyrazin-7(8H)-yl]carbonyl}piperidin-1-yl]-7-(trifluoromethyl)quinoline-3-carbonitrile] reads 380 pM; that for `C[C@@H]1CN(c2c(C#N)cnc3c(F)c(C(F)(F)F)ccc23)CC[C@@H]1C(=O)N1CCn2c(nnc2C(F)(F)F)C1` [Example 17, 8-fluoro-4-[(3S,4S)-3-methyl-4-{[3-(trifluoromethyl)-5,6-dihydro[1,2,4]triazolo[4,3-a]pyrazin-7(8H)-yl]carbonyl}piperidin-1-yl]-7-(trifluoromethyl)quinoline-3-carbonitrile], 360 pM.
The figure for `COc1cc(Cl)cc2c(N3CC[C@H](C(=O)N4CCn5c(nnc5C(F)(F)F)C4)[C@H](C)C3)c(C#N)cnc12` [Example 18, 6-chloro-8-methoxy-4-[(3S,4S)-3-methyl-4-{[3-(trifluoromethyl)-5,6-dihydro[1,2,4]triazolo[4,3-a]pyrazin-7(8H)-yl]carbonyl}piperidin-1-yl]quinoline-3-carbonitrile] is 530 pM.
`COc1ccc2c(N3CC[C@H](C(=O)N4CCn5c(nnc5C(F)(F)F)C4)[C@H](C)C3)c(C#N)cnc2c1C` [Example 19, 7-methoxy-8-methyl-4-[(3S,4S)-3-methyl-4-{[3-(trifluoromethyl)-5,6-dihydro[1,2,4]triazolo[4,3-a]pyrazin-7(8H)-yl]carbonyl}piperidin-1-yl]quinoline-3-carbonitrile] came in with an IC50 of 200 pM.
The figure for `COc1cc2ncc(C#N)c(N3CC[C@H](C(=O)N4CCn5c(nnc5C(F)(F)F)C4)[C@H](C)C3)c2cc1Br` [Example 20, 6-bromo-7-methoxy-4-[(3S,4S)-3-methyl-4-{[3-(trifluoromethyl)-5,6-dihydro[1,2,4]triazolo[4,3-a]pyrazin-7(8H)-yl]carbonyl}piperidin-1-yl]quinoline-3-carbonitrile] is 240 pM; for `C[C@@H]1CN(c2c(C#N)cnc3nc(C(F)(F)F)ccc23)CC[C@@H]1C(=O)N1CCn2c(nnc2C(F)(F)F)C1` [Example 21, 4-[(3S,4S)-3-methyl-4-{[3-(trifluoromethyl)-5,6-dihydro[1,2,4]triazolo[4,3-a]pyrazin-7(8H)-yl]carbonyl}piperidin-1-yl]-7-(trifluoromethyl)-1,8-naphthyridine-3-carbonitrile] it is 4810 pM.
The figure for `C[C@@H]1CN(c2c(C#N)cnc3cc(OC(F)(F)F)ccc23)CC[C@@H]1C(=O)N1CCn2c(nnc2C(F)(F)F)C1` [Example 22, 4-[(3S,4S)-3-methyl-4-{[3-(trifluoromethyl)-5,6-dihydro[1,2,4]triazolo[4,3-a]pyrazin-7(8H)-yl]carbonyl}piperidin-1-yl]-7-(trifluoromethoxy)quinoline-3-carbonitrile] is 220 pM.
The result for `C[C@@H]1CN(c2c(C#N)cnc3cc(C(F)F)ccc23)CC[C@@H]1C(=O)N1CCn2c(nnc2C(F)(F)F)C1` [Example 23, 7-(difluoromethyl)-4-((3S,4S)-3-methyl-4-(3-(trifluoromethyl)-5,6,7,8-tetrahydro-[1,2,4]trizolo[4,3-a]pyrazine-7-carbonyl)piperidin-1-yl)quinolone-3-carbonitrile] reads 500 pM.
Take `C[C@@H]1CN(c2c(C#N)cnc3cc(C(F)(F)F)ccc23)CC[C@@H]1C(=O)N1CCn2c(nnc2C(F)(F)F)C1` [Example 24, 4-((3S,4S)-3-methyl-4-(3-(trifluoromethyl)-5,6,7,8-tetrahydro-[1,2,4]triazolo[4,3-a]pyrazine-7-carbonyl)piperidin-1-yl)-7-(trifluoromethyl)quinoline-3-carbonitrile]: 400 pM corresponded to half-maximal inhibition (IC50).
The figure for `C[C@@H]1CN(c2c(C#N)cnc3cc(F)c(F)cc23)CC[C@@H]1C(=O)N1CCn2c(nnc2C(F)(F)F)C1` [Example 25, 6,7-difluoro-4-[(3S,4S)-3-methyl-4-{[3-(trifluoromethyl)-5,6-dihydro[1,2,4]triazolo[4,3-a]pyrazin-7(8H)-yl]carbonyl}piperidin-1-yl]quinoline-3-carbonitrile] is 360 pM; for `C[C@@H]1CN(c2c(C#N)cnc3c(F)cc(F)cc23)CC[C@@H]1C(=O)N1CCn2c(nnc2C(F)(F)F)C1` [Example 26, 6,8-difluoro-4-[(3S,4S)-3-methyl-4-{[3-(trifluoromethyl)-5,6-dihydro[1,2,4]triazolo[4,3-a]pyrazin-7(8H)-yl]carbonyl}piperidin-1-yl]quinoline-3-carbonitrile] it is 490 pM.
In turn, `C[C@@H]1CN(c2c(C#N)cnc3cc(Cl)ccc23)CC[C@@H]1C(=O)N1CCn2c(nnc2C(F)(F)F)C1` [Example 27, 7-chloro-4-[(3S,4S)-3-methyl-4-{[3-(trifluoromethyl)-5,6-dihydro[1,2,4]triazolo[4,3-a]pyrazin-7(8H)-yl]carbonyl}piperidin-1-yl]quinoline-3-carbonitrile] had an IC50 of 740 pM. Against the preceding molecule, the IC50 is about 1.5-fold higher.
On to `COc1ccc2c(N3CC[C@H](C(=O)N4CCn5c(nnc5C(F)(F)F)C4)[C@H](C)C3)c(C#N)cnc2c1` [Example 28, 7-methoxy-4-[(3S,4S)-3-methyl-4-{[3-(trifluoromethyl)-5,6-dihdyro[1,2,4]triazolo[4,3-a]pyrazin-7(8H)-yl]carbonyl}piperidin-1-yl]quinoline-3-carbonitrile], for which the midpoint of inhibition, the IC50, lay at 610 pM.
The figure for `Cc1nc2ccc(F)cc2c(N2CC[C@H](C(=O)N3CCn4c(nnc4C(F)(F)F)C3)[C@H](C)C2)c1C#N` [Example 29, 6-fluoro-2-methyl-4-[(3S,4S)-3-methyl-4-{[3-(trifluoromethyl)-5,6-dihydro[1,2,4]triazolo[4,3-a]pyrazin-7(8H)-yl]carbonyl}piperidin-1-yl]quinoline-3-carbonitrile] is 9400 pM.
